Data from patent US6649605B2, “Treatment of tension-type headaches with NMDA receptor antagonists” (Head Explorer A/S, priority 1996, dated 2003).
Where “and” joins values, the source holds several entries; their conditions need not be identical. Equal values may be shown once. Entries after “also recorded” stand apart in the source; their conditions may differ.

Columns and labels:
Format in all cases: in vivo, human
[1] = system: patients with chronic tension-type headache; test: Blood pressure, pulse rate, adverse events and rescue medication after L-NMMA infusion
Procedure: Randomization (Med.Stat) and drug preparation were performed by staff not involved in the study. The medication was given over 15 minutes into an antecubital vein (Braun Perfusor). The following parameters were measured at baseline and […] post administration: headache intensity on a 100-mm Visual Analog Scale (VAS) (0-no headache and 100-worst imaginable headache) and on a Verbal Rating Scale (VRS) from 0-10 (0-no headache; 5-moderate headache; 10-worst imaginable headache). Blood pressure and pulse rate were measured 5 minutes prior to administration of treatment and at 5, 10, 15, 20, 25, 30, 60, 90 and 120 minutes post administration. Twelve-lead ECG was monitored continuously. Any adverse events were recorded. Patient with unrelieved headache at 120 minutes post treatment were allowed to take rescue medication. All patients were asked to record details of the following on a diary card at 4, 8, 12, 16, 20 and 24 hours post administration, headache intensity on VRS, any medication taken and adverse events. Between 4-7 days after each treatment, the patients returned to the clinic, the diary cards were collected and any adverse events were noted.
Primary endpoint was the reduction of pain intensity over time on active treatment compared to placebo. The secondary endpoints were reduction of pain intensity at 30, 60, 90 and 120 minutes post dosing on VAS and VRS compared to pre-treatment pain score within each treatment. Comparison of pain intensity on VAS, blood pressure and pulse rate over time between treatments were performed With ANOVA. Paired-Samples T Test was used to compare pre-treatment pain score on VAS with pain score at 30, 60, 90, 120 minutes post dosing within each treatment. The sum of differences between the pre-treatment VRS score and the VRS score at 30, 60, 90, 120 minutes post dosing was calculated in order to obtained a summary measure of pain score for each treatment (Matthews et al. 1990). These sums of differences for each treatment were compared by Wilcoxon Signed Rank test. Five percent was accepted as level of significance.

[2] = system: trapezius muscle of patients with chronic tension-type headache; test: Muscle hardness of the trapezius muscle (hardness meter) after L-NMMA; details: 6 mg/kg i.v.
From the text: (§1) Sixteen patients with a diagnosis of chronic tension-type headache according to the criteria of the International Headache Society (Headache Classification Committee 1988) were included (Table XVII). Five of the patients had coexisting infrequent migraine (<four days/year). The patients were recruited from the out-patient headache clinic at Glostrup University Hospital without respect to presence or absence of myofascial tenderness. All patients underwent a general physical and a neurological examination and completed a diagnostic headache diary during a 4-week run-in period (Russell et al. 1992). […]
Muscle hardness. The muscle hardness of the trapezius muscle was measured with a hardness meter, which has previously been described in detail (Horikawa et al. 1993). […]
(§2) The recordings were performed in a standardized manner by the same observer, a trained technician (HA), throughout the study. All parameters were recorded at baseline, 60 and 120 minutes after start of infusion. […] Headache intensity was measured on a 100 mm Visual Analog Scale (VAS) (0-no headache and 100-worst imaginable headache) before, during and after start of infusion.
Muscle hardness. The muscle hardness was measured at a standard anatomical point on the trapezius muscle On the non-dominant side, as previously described (Ashina et al. 1998b). […] The muscle hardness was calculated as the mean of five consecutive determinations. […]

[3] = system: patients with chronic tension-type headache; test: Total Tenderness Score of pericranial myofascial tissues after L-NMMA; details: 6 mg/kg i.v., hydrochloride
From the text: as §1, §2
Total tenderness. […] Tenderness was scored on a 4-point (0-3) scale at each location (local tenderness score) and values from left and right sides were summed to a Total Tenderness Score (TTS) (maximum possible score=48). […]

## CN=C(N)NCCC[C@H](N)C(=O)O.Cl [L-NMMA, L-N^G methyl arginine hydrochloride]
[1]; 6 mg/kg i.v.
  Subjective symptoms reported (number of patients): tiredness (2), dryness of the mouth (3), drowsiness (1), exhaustion (1), nausea (1) and a feeling of tingling in arm (1)
[1]; 6 mg/kg i.v., p=0.0001 and p=0.0001
  MAP and pulse rate over time compared with placebo: changed significantly over time
[1]; after start of infusion
  Time at which the difference in MAP and pulse rate to placebo disappeared: 60 min
[1]; occurred 10 minutes post dosing, 6 mg/kg i.v., hydrochloride, 6 mg/kg
  Maximum decrease in pulse rate: 16±2% and 16%
[1]; occurred 15 minutes post dosing, 6 mg/kg i.v., hydrochloride, 6 mg/kg
  Maximum increase in mean arterial blood pressure (MAP): 12±2% and 12%
[1]; of 16 patients, 6 mg/kg i.v.
  Patients who reported subjective symptoms in relation to the infusion: Seven
[1]; of 16 patients, 7 on placebo
  Patients who used simple analgesics as rescue medication: Three
[2]; p=0.04, hydrochloride
  Muscle hardness (summary score) compared with placebo: significantly more reduced; also recorded: reduces muscle hardness; also recorded: reduced significantly more; also recorded: significantly reduced
[2]; p=0.04 and p<0.05
  Muscle hardness compared with baseline: significantly reduced at 60 and 120 minutes
[3]; p=0.007 and p=0.008
  TTS compared with baseline: significantly reduced at 60 and 120 minutes; also recorded: significantly), reduced at 60 and 120 minutes
[3]; p=0.11
  Tenderness score (summary) compared with placebo: tended to be reduced; also recorded: tended to be reduced more; also recorded: not significant
